Measurements: publication PMC5695821, “Pharmacological inhibition of RORγt suppresses the Th17 pathway and alleviates arthritis in vivo” (PLoS ONE, 2017)

Target: T1, RORγt (Homo sapiens, UniProt P51449)
T1 construct: gene RORC; LBD, amino acids 264–518, His6-tagged
T1 sequence (P51449 264-518): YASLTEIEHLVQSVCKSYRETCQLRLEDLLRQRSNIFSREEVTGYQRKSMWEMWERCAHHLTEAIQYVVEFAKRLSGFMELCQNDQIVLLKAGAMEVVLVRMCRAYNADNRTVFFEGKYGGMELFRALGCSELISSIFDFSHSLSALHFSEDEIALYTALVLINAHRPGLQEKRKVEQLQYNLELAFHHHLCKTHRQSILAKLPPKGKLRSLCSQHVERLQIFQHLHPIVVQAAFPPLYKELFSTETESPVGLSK
Test: TR-FRET displacement of RIP140 co-activator peptide from purified RORγt-LBD; supported by DSLS thermal shift (ΔTagg […] °C)
Type: binding

IC50: 19 nM
Structure (SMILES): Cc1ncc(C(=O)Nc2cn3ccnc3c(CN3CCN(C(=O)C4CCCC4)[C@@H](C)C3)c2C)cn1 [compound 1, (S)-N-(8-((4-(cyclopentanecarbonyl)-3-methylpiperazin-1-yl)methyl)-7-methylimidazo[1,2-a]pyridin-6-yl)-2-methylpyrimidine-5-carboxamide]
